The nature of series [1]: Efficacy of peracetylated beta cyclodextrin as HFA drug suspension stabiliser (phase separation recorded photographically). The format is physicochemical. The settings on record: peracetylated β cyclodextrin at saturation level, phase separation much slower, suspension much finer, head space adhesion less. The method, then: First, reference samples of pure drugs in HFAs were prepared. Then samples with solubilised peracetylated beta (β) cyclodextrin and micronised drug were prepared. The concentration of drug in these samples was the same as in the reference samples. The cyclodextrin concentration was at saturation level.
The reference samples (pure drug) were prepared by weighing the drug in a PET vial. A valve was then crimped on the vial and propellant added under pressure. The vial was then sonicated for at least 15 minutes and left to equilibrate for one week.
The drug—cyclodextrin samples were prepared by weighing a known amount of drug in a PET vial. The vial was then crimped with a continuous valve. The solution of peracetylated beta (β) cyclodextrin was prepared thus: a large amount of cyclodextrin was placed in large metallic can, it was crimped and filled with one of the propellants. This can was left to equilibrate for at least a week at room temperature. When equilibration was reached, the saturated cyclodextrin solution was filtered through a […] PTFE filter into the PET vials containing the known drug amounts. This way the maximum amount of soluble cyclodextrin was used in the suspensions. The concentration of drugs in the vials was then calculated through accurate recording of the weights of propellant/cyclodextrin added.
The phase separation phenomenon present in both samples (pure drug and with the cyclodextrin) was then recorded photographically.

The nature of series [2]: Solubility of peracetylated cyclodextrins in HFA propellants, assessed visually. The format is physicochemical. The settings on record: equilibrated one week, visual; for solubility in HFA 134a: room temperature; for solubility in HFA 227: HFA 227, room temperature. Here is the method:
The solubility of peracetylated cyclodextrins (alpha, beta and gamma) in HFA propellants was assessed visually in clear PET vials crimped with a continuous pMDI valve. Known amounts of cyclodextrins were weighed into the PET vials. Continuous valves were crimped on the vial, and HFAs were added under pressure to the required amount. The samples were left to equilibrate over one week and were visually inspected. The solubility of the modified cyclodextrin at room temperature was evaluated by discriminating between samples that were clear by opposition to those samples that still had solid particles in suspension.

As to `CCCC1O[C@@H]2C[C@H]3[C@@H]4CCC5=CC(=O)C=C[C@]5(C)[C@H]4[C@@H](O)C[C@]3(C)[C@]2(C(=O)CO)O1` (some centres unmarked) [Budesonide], the “quality/stability of drug suspension with modified cyclodextrin versus pure drug sample” value was “improved” in series [1] (HFA 134a) and “much improved” in series [1] (HFA 227).
In the same order, the values of `CC(C)(C)NCC(O)c1cc(O)cc(O)c1` (centres unmarked) [Terbutaline Sulphate] are “much improved” and “far more stable”.
For `CC(=O)OCC1OC2OC3C(COC(C)=O)OC(OC4C(COC(C)=O)OC(OC5C(COC(C)=O)OC(OC6C(COC(C)=O)OC(OC7C(COC(C)=O)OC(OC1C(OC(C)=O)C2OC(C)=O)C(OC(C)=O)C7OC(C)=O)C(OC(C)=O)C6OC(C)=O)C(OC(C)=O)C5OC(C)=O)C(OC(C)=O)C4OC(C)=O)C(OC(C)=O)C3OC(C)=O` (stereo not drawn) [peracetylated alpha (α) cyclodextrin], in series [2], the “solubility in HFA 134a” value was “above 1 % w/w” and the “solubility in HFA 227” value is on record as “above 0.5 % w/w”.
In the same order, the values of peracetylated beta (β) cyclodextrin are “above 1 % w/w” and “above 0.1 % w/w”.

The record behind these values is patent publication US20070104652A1, “Pharmaceutical spray formulation comprising a hydro fluor alkane and an acylated cyclodextrin” (priority 2003, published 2007).
